The values below come from PubChem BioAssay AID2842 (Southern Research Institute, 2010).

Converted amounts (≈) assume the structure as drawn.

In this experiment the test system is M. tuberculosis H37Rv growth inhibition. Kind of experiment: Mycobacterium tuberculosis H37Rv growth inhibition, putative kinase inhibitor library, confirmatory dose response (AID 2842).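 Further: bacteria incubated one week before Alamar blue readout.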

With `O=C(OCc1ccco1)c1cc2ccccc2oc1=O`, the concentration for an effect of 90% (IC90) was 20.4 µg/mL (≈ 75.3 µM).
To `COc1ccc(-c2nnc(NC(=O)c3cc4ccccc4cc3OC)o2)cc1` belongs 26.3 µg/mL (≈ 70.2 µM); to `CSc1nc2cc(NC(=S)NC(=O)c3ccccc3)ccc2s1`, 6.89 µg/mL (≈ 19.2 µM); to `COc1cccc(-c2nnc(NC(=O)c3ccccc3Br)o2)c1`, 2.17 µg/mL (≈ 5.8 µM).
With `COc1ccc(-c2nnc(NC(=O)c3ccc4c(c3)OCCO4)o2)c(OC)c1`, the 90% effect concentration (IC90) was 24.7 µg/mL (≈ 64.4 µM).
To `O=C(Nc1nnc(C2=COCCO2)o1)c1ccc(-c2ccccc2)cc1` belongs 8.24 µg/mL (≈ 23.6 µM); to `COc1ccccc1N1CCN(c2nc(Nc3ccc(F)cc3)c3nccnc3n2)CC1`, 27.6 µg/mL (≈ 63.9 µM).
To `O=C(Nc1nc(-c2cccs2)c(C(=O)C(F)(F)F)s1)c1cc(-c2ccccc2)nc2ccccc12` belongs 24.4 µg/mL (≈ 47.9 µM); to `CCS(=O)(=O)c1cccc(C(=O)Nc2nnc(-c3cc(C)ccc3C)o2)c1`, 9.12 µg/mL (≈ 23.7 µM).
To `Cc1ccc(-c2nnc(NC(=O)c3nc4ccccc4s3)o2)c(C)c1` belongs 1.76 µg/mL (≈ 5.02 µM); to `Oc1ccc(Br)cc1C1CC(c2ccoc2)=NN1` (stereo not given), 25.3 µg/mL (≈ 82.4 µM).
As for `Cc1ccc(-c2nnc(NC(=O)c3ccccc3[N+](=O)[O-])o2)c(C)c1`, the IC90 was 15.7 µg/mL (≈ 46.5 µM).
As for `O=C(Nc1nnc(-c2cc(Cl)ccc2Cl)o1)c1cc(-c2ccccc2)nc2ccccc12`, the IC90 was 1.96 µg/mL (≈ 4.25 µM).
Consider `Cc1cc(NCCCn2ccnc2)n2ncc(-c3ccccc3)c2n1`, for which the IC90 is 3.12 µg/mL (≈ 9.39 µM).
To `Cc1ccccc1C(=O)Nc1nnc(-c2ccc(F)cc2)o1` belongs < 0.2 µg/mL.
To `CCOC(=O)COc1ccc(/C=C2\Oc3cc(OC)ccc3C2=O)cc1` belongs 3.32 µg/mL (≈ 9.37 µM).
To `O=C1CC(c2nc3ccccc3n2Cc2ccccc2Cl)CN1c1ccccc1F` (stereo not given) belongs 18.1 µg/mL (≈ 43.2 µM); to `O=C1C(Cl)=C(Nc2ccccc2O)C(=O)N1c1ccc(Cl)c(Cl)c1`, 0.84 µg/mL (≈ 2.19 µM); to `CCc1ccc(-c2nnc3c4cc(OC)c(OC)cc4n(Cc4ccccc4F)cc2-3)cc1`, 8.11 µg/mL (≈ 18.4 µM).
As to `CC(C)(C)C(=O)Nc1nnc(C2=COCCO2)o1`, the concentration for an effect of 90% (IC90) was 48.6 µg/mL (≈ 192 µM).
To `CC(C)(C)C(=O)Nc1nnc(-c2cc(Cl)ccc2Cl)o1` belongs < 0.2 µg/mL; to `Cc1ccc(C(=O)c2cn(Cc3ccc(F)cc3)c3ccc(F)cc3c2=O)cc1`, 12.5 µg/mL (≈ 32.2 µM).
In the case of `Cc1cc(Cl)cc2sc(N(CCCn3ccnc3)C(=O)c3cccs3)nc12`, the IC90 was 1.05 µg/mL (≈ 2.52 µM).
To `Cc1cc(NC2CCCC2)n2ncc(-c3ccccc3)c2n1` belongs 9.88 µg/mL (≈ 33.8 µM); to `COc1ccc(C)c2sc(N(CCCn3ccnc3)C(=O)c3ccc(Cl)s3)nc12`, 2.69 µg/mL (≈ 6.02 µM).
To `CC(=O)Nc1ccc2nc(Nc3nc4ccc(C(C)C)cc4s3)sc2c1` belongs 2 µg/mL (≈ 5.23 µM).
To `COc1ccc(O)c(/C=N/NC(=O)c2ccncc2)c1` belongs 0.82 µg/mL (≈ 3.02 µM).
Regarding `Cc1cccc(C(=O)Nc2nnc(-c3cccnc3)o2)c1`, the IC90 is 8.87 µg/mL (≈ 31.6 µM).
To `O=C(CSc1nnc(-c2ccncc2)o1)N1CCCCC1` belongs 14.2 µg/mL (≈ 46.7 µM); to `O=C(Nc1nnc(-c2ccc(Cl)s2)o1)c1cccc([N+](=O)[O-])c1`, 6.09 µg/mL (≈ 17.4 µM).
To `CCOC(=O)c1ccc2nc(Nc3nc4cc5c(cc4s3)OCO5)sc2c1` belongs 34.8 µg/mL (≈ 87.2 µM); to `O=C(CCc1ccccc1)Nc1nnc(-c2ccc(Cl)s2)o1`, 2.27 µg/mL (≈ 6.8 µM); to `O=C(Cc1ccccc1)N(CCCn1ccnc1)c1nc2c(F)cccc2s1`, 7.4 µg/mL (≈ 18.8 µM).
Regarding `Cc1ccc(N2C(=O)C(Cl)=C(Nc3cc(Cl)ccc3O)C2=O)cc1`, the concentration for an effect of 90% (IC90) is 25.4 µg/mL (≈ 69.8 µM).
Take `O=C(NNc1nc2c(F)cc(F)cc2s1)c1coc2ccccc2c1=O`: the 90% effect concentration (IC90) is 3.33 µg/mL (≈ 8.92 µM).
In the case of `COc1ccc(-c2nnc(Nc3nc4c(OC)cccc4s3)o2)cc1`, the 90% effect concentration (IC90) is 23.6 µg/mL (≈ 66.5 µM).
To `OCCN1CCN(c2ncnc3c2cnn3-c2ccc(Cl)c(Cl)c2)CC1` belongs 14.9 µg/mL (≈ 38 µM); to `CC(C)c1cc(-c2nc(-c3ccccc3)no2)n[nH]1`, 12.7 µg/mL (≈ 49.9 µM).
To `N=c1sc(/C=C2\C=Nc3ccccc32)c(O)n1-c1nccs1` belongs < 0.2 µg/mL.
In the case of `CC(=O)c1ccc(C(=O)Nc2nnc(-c3ccc(Cl)cc3)o2)cc1`, the IC90 was 1.8 µg/mL (≈ 5.27 µM).
To `O=C(/C=C/c1cccs1)Nc1nnc(-c2ccco2)o1` belongs 5.99 µg/mL (≈ 20.8 µM); to `CCOC(=O)c1ccc(NC(=O)CSc2ccc(F)cc2)cc1`, 5.47 µg/mL (≈ 16.4 µM); to `O=C(Nc1nnc(-c2ccc3c(c2)CCCC3)o1)c1cccc(Cl)c1`, 8.65 µg/mL (≈ 24.4 µM).
To `COc1ccc(-c2noc(-c3cc(C(C)C)[nH]n3)n2)cc1` belongs 12.2 µg/mL (≈ 42.8 µM); to `Cc1ccc2sc(N(CCCn3ccnc3)C(=O)c3cccs3)nc2c1C`, 0.54 µg/mL (≈ 1.36 µM).
To `Cc1ccc(Cn2cc3c(-c4ccc(C)c(C)c4)nnc-3c3cc4c(cc32)OCCO4)cc1` belongs 11.5 µg/mL (≈ 26.5 µM).
As to `O=C(Nc1nnc(-c2cc(Cl)ccc2Cl)o1)c1ccccc1Br`, the IC90 was 1.6 µg/mL (≈ 3.87 µM).
To `COc1cc(OC)cc(C(=O)N(CCCn2ccnc2)c2nc3c(C)cc(C)cc3s2)c1` belongs 10.1 µg/mL (≈ 22.3 µM); to `O=C(Nc1nnc(-c2ccc(Cl)cc2)o1)c1ccco1`, 1.11 µg/mL (≈ 3.83 µM).
To `CCOC(=O)c1cnc2ccc(OCC)cc2c1Nc1cccc(C)c1` belongs 14.1 µg/mL (≈ 40.3 µM).

For orientation: IC90 means the point of the concentration-response curve where the effect stands at 90%.
